The values that follow are results of earlier work, collected in patent US8481490B2, “Method of reducing plasma amylase and/or plasma lipase in patients with pancreatitis” (Amylin Pharmaceuticals, LLC, priority 2010, dated 2013).

In the data set the test system is diabetic transgenic HIP rats. To be noted: one rat with histological features of acute pancreatitis.

In the case of `N[C@@H](CC(=O)N1CCn2c(nnc2C(F)(F)F)C1)Cc1cc(F)c(F)cc1F` [sitagliptin], the “ductal cell turnover and metaplasia” value is “increased ductal cell turnover and metaplasia”.
